What was measured:
Conditions in all cases: exposure time: 72 h
E57 [1] = patient-derived glioblastoma stem cells of mesenchymal subtype; assay: surviving fraction (nuclei count normalised to DMSO); higher = more cells surviving (less toxic)
E28 [2] = patient-derived glioblastoma stem cells of classical subtype; assay: as above
E31 [3] = patient-derived glioblastoma stem cells of proneural subtype; assay: as above
E34 [4] = patient-derived glioblastoma stem cells of proneural subtype; assay: as above
E21 [5] = patient-derived glioblastoma stem cells of mesenchymal subtype; assay: as above
FT3469 [6] = normal neural stem cell line; assay: as above
E13 [7] = patient-derived glioblastoma stem cells of classical subtype; assay: as above
E57 [8] = assay: phenotypic distance (Euclidean, principal components) from DMSO controls (arbitrary units); higher = stronger morphological change
E28 [9] = assay: as above
E31 [10] = assay: as above
E34 [11] = assay: as above
E21 [12] = assay: as above
FT3469 [13] = assay: as above
E13 [14] = assay: as above
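Throughout, for phenotypic distance (Euclidean, principal components) from DMSO controls: cell Painting imaging in 384-well plates, CellProfiler features reduced to at least 20 principal components, Euclidean distance versus same-plate DMSO vehicle wells (0.1% v/v), median over six images per well.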
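Throughout, for surviving fraction (nuclei count normalised to DMSO): nuclei counted by high-content imaging of Hoechst-stained cells in laminin-coated 384-well plates, relative to 0.1% DMSO vehicle wells, with staurosporine as cell-death control.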

COc1nc(C)nc(Cl)c1NC1=NCCN1 [Moxonidine]
Conditions	phenotypic distance	surviving fraction
E13 [7], 4.1 nM	–	0.843
E13 [7], 12.3 nM	–	1.02
E13 [7], 37 nM	–	0.886
E13 [7], 111.1 nM	–	0.915
E13 [7], 333.3 nM	–	0.908
E13 [7], 1000 nM	–	0.948
E13 [7], 3000 nM	–	0.923
E13 [14], 4.1 nM	0.65	–
E13 [14], 12.3 nM	0.585	–
E13 [14], 37 nM	0.647	–
E13 [14], 111.1 nM	0.433	–
E13 [14], 333.3 nM	0.523	–
E13 [14], 1000 nM	0.446	–
E13 [14], 3000 nM	0.37	–
E21 [5], 4.1 nM	–	1.03
E21 [5], 12.3 nM	–	0.94
E21 [5], 37 nM	–	0.924
E21 [5], 111.1 nM	–	1.12
E21 [5], 333.3 nM	–	1.1
E21 [5], 1000 nM	–	1.06
E21 [5], 3000 nM	–	0.991
E21 [12], 4.1 nM	0.506	–
E21 [12], 12.3 nM	0.442	–
E21 [12], 37 nM	0.528	–
E21 [12], 111.1 nM	1.03	–
E21 [12], 333.3 nM	0.334	–
E21 [12], 1000 nM	0.69	–
E21 [12], 3000 nM	0.274	–
E28 [2], 4.1 nM	–	0.996
E28 [2], 12.3 nM	–	1.06
E28 [2], 37 nM	–	0.904
E28 [2], 111.1 nM	–	1.13
E28 [2], 333.3 nM	–	0.848
E28 [2], 1000 nM	–	1.05
E28 [2], 3000 nM	–	0.825
E28 [9], 4.1 nM	0.486	–
E28 [9], 12.3 nM	0.819	–
E28 [9], 37 nM	0.764	–
E28 [9], 111.1 nM	0.711	–
E28 [9], 333.3 nM	0.733	–
E28 [9], 1000 nM	0.573	–
E28 [9], 3000 nM	0.781	–
E31 [3], 4.1 nM	–	1
E31 [3], 12.3 nM	–	1.18
E31 [3], 37 nM	–	0.879
E31 [3], 111.1 nM	–	1.15
E31 [3], 333.3 nM	–	0.956
E31 [3], 1000 nM	–	1.21
E31 [3], 3000 nM	–	1.06
E31 [10], 4.1 nM	0.413	–
E31 [10], 12.3 nM	0.823	–
E31 [10], 37 nM	0.773	–
E31 [10], 111.1 nM	0.902	–
E31 [10], 333.3 nM	0.598	–
E31 [10], 1000 nM	0.599	–
E31 [10], 3000 nM	0.717	–
E34 [4], 4.1 nM	–	0.953
E34 [4], 12.3 nM	–	0.957
E34 [4], 37 nM	–	0.962
E34 [4], 111.1 nM	–	1.07
E34 [4], 333.3 nM	–	1.26
E34 [4], 1000 nM	–	0.981
E34 [4], 3000 nM	–	0.699
E34 [11], 4.1 nM	0.347	–
E34 [11], 12.3 nM	0.861	–
E34 [11], 37 nM	0.936	–
E34 [11], 111.1 nM	0.523	–
E34 [11], 333.3 nM	0.639	–
E34 [11], 1000 nM	0.533	–
E34 [11], 3000 nM	1.09	–
E57 [1], 4.1 nM	–	1.06
E57 [1], 12.3 nM	–	0.999
E57 [1], 37 nM	–	1.06
E57 [1], 111.1 nM	–	1.03
E57 [1], 333.3 nM	–	0.978
E57 [1], 1000 nM	–	0.975
E57 [1], 3000 nM	–	1.04
E57 [8], 4.1 nM	0.464	–
E57 [8], 12.3 nM	0.657	–
E57 [8], 37 nM	0.543	–
E57 [8], 111.1 nM	0.801	–
E57 [8], 333.3 nM	0.46	–
E57 [8], 1000 nM	0.757	–
E57 [8], 3000 nM	0.505	–
FT3469 [6], 4.1 nM	–	1.03
FT3469 [6], 12.3 nM	–	1.1
FT3469 [6], 37 nM	–	1.25
FT3469 [6], 111.1 nM	–	1.04
FT3469 [6], 333.3 nM	–	1.26
FT3469 [6], 1000 nM	–	1.18
FT3469 [6], 3000 nM	–	1.38
FT3469 [13], 4.1 nM	0.479	–
FT3469 [13], 12.3 nM	0.821	–
FT3469 [13], 37 nM	0.541	–
FT3469 [13], 111.1 nM	0.878	–
FT3469 [13], 333.3 nM	0.406	–
FT3469 [13], 1000 nM	0.742	–
FT3469 [13], 3000 nM	0.873	–

CCC(C)n1ncn(-c2ccc(N3CCN(c4ccc(OCC5COC(Cn6cncn6)(c6ccc(Cl)cc6Cl)O5)cc4)CC3)cc2)c1=O (stereo unspecified) [Itraconazole]
Conditions	phenotypic distance	surviving fraction
E13 [7], 4.1 nM	–	0.869
E13 [7], 12.3 nM	–	1.07
E13 [7], 37 nM	–	0.889
E13 [7], 111.1 nM	–	1.02
E13 [7], 333.3 nM	–	0.966
E13 [7], 1000 nM	–	0.801
E13 [7], 3000 nM	–	0.653
E13 [14], 4.1 nM	0.693	–
E13 [14], 12.3 nM	0.503	–
E13 [14], 37 nM	1.03	–
E13 [14], 111.1 nM	0.709	–
E13 [14], 333.3 nM	0.981	–
E13 [14], 1000 nM	2.73	–
E13 [14], 3000 nM	4.62	–
E21 [5], 4.1 nM	–	1.03
E21 [5], 12.3 nM	–	1.02
E21 [5], 37 nM	–	1.01
E21 [5], 111.1 nM	–	0.979
E21 [5], 333.3 nM	–	1.05
E21 [5], 1000 nM	–	0.79
E21 [5], 3000 nM	–	0.532
E21 [12], 4.1 nM	0.987	–
E21 [12], 12.3 nM	0.508	–
E21 [12], 37 nM	0.932	–
E21 [12], 111.1 nM	0.917	–
E21 [12], 333.3 nM	0.975	–
E21 [12], 1000 nM	3.76	–
E21 [12], 3000 nM	7.08	–
E28 [2], 4.1 nM	–	1.1
E28 [2], 12.3 nM	–	1.07
E28 [2], 37 nM	–	1.18
E28 [2], 111.1 nM	–	0.888
E28 [2], 333.3 nM	–	1.07
E28 [2], 1000 nM	–	0.897
E28 [2], 3000 nM	–	0.735
E28 [9], 4.1 nM	0.725	–
E28 [9], 12.3 nM	0.689	–
E28 [9], 37 nM	0.685	–
E28 [9], 111.1 nM	0.54	–
E28 [9], 333.3 nM	0.778	–
E28 [9], 1000 nM	1.01	–
E28 [9], 3000 nM	1.89	–
E31 [3], 4.1 nM	–	1.13
E31 [3], 12.3 nM	–	1.12
E31 [3], 37 nM	–	1.1
E31 [3], 111.1 nM	–	1.03
E31 [3], 333.3 nM	–	1.08
E31 [3], 1000 nM	–	1.09
E31 [3], 3000 nM	–	0.996
E31 [10], 4.1 nM	0.564	–
E31 [10], 12.3 nM	0.769	–
E31 [10], 37 nM	0.273	–
E31 [10], 111.1 nM	0.748	–
E31 [10], 333.3 nM	0.758	–
E31 [10], 1000 nM	1.32	–
E31 [10], 3000 nM	5	–
E34 [4], 4.1 nM	–	0.814
E34 [4], 12.3 nM	–	0.933
E34 [4], 37 nM	–	0.922
E34 [4], 111.1 nM	–	1.02
E34 [4], 333.3 nM	–	1.04
E34 [4], 1000 nM	–	0.831
E34 [4], 3000 nM	–	0.701
E34 [11], 4.1 nM	0.775	–
E34 [11], 12.3 nM	0.644	–
E34 [11], 37 nM	0.488	–
E34 [11], 111.1 nM	0.692	–
E34 [11], 333.3 nM	0.901	–
E34 [11], 1000 nM	1.17	–
E34 [11], 3000 nM	4	–
E57 [1], 4.1 nM	–	1.05
E57 [1], 12.3 nM	–	1.03
E57 [1], 37 nM	–	1.02
E57 [1], 111.1 nM	–	1.08
E57 [1], 333.3 nM	–	1.07
E57 [1], 1000 nM	–	0.999
E57 [1], 3000 nM	–	0.558
E57 [8], 4.1 nM	0.542	–
E57 [8], 12.3 nM	0.297	–
E57 [8], 37 nM	0.803	–
E57 [8], 111.1 nM	0.874	–
E57 [8], 333.3 nM	0.482	–
E57 [8], 1000 nM	2.51	–
E57 [8], 3000 nM	6.42	–
FT3469 [6], 4.1 nM	–	0.763
FT3469 [6], 12.3 nM	–	1.05
FT3469 [6], 37 nM	–	1.03
FT3469 [6], 111.1 nM	–	1.06
FT3469 [6], 333.3 nM	–	0.993
FT3469 [6], 1000 nM	–	0.895
FT3469 [6], 3000 nM	–	0.53
FT3469 [13], 4.1 nM	0.966	–
FT3469 [13], 12.3 nM	0.554	–
FT3469 [13], 37 nM	1.33	–
FT3469 [13], 111.1 nM	3.66	–
FT3469 [13], 333.3 nM	0.753	–
FT3469 [13], 1000 nM	1.14	–
FT3469 [13], 3000 nM	3.43	–

From the supplement of paper PMC13207355
